Data on three compounds can be found in patent publication US6534526B2, “Laminitis in horses” (Clemson University, priority 2001, dated 2003).

Structures can show the parent of a compound that is named as a salt.

In one data set the test system is laminitis in horses. The data set is described as follows: Oral domperidone treatment of laminitic horses (case examples 1-6).
For data set [1] the following is noted: α-adrenergic antagonists examined for laminitis; background statement; cited from earlier work.

`O=c1[nH]c2ccccc2n1CCCN1CCC(n2c(=O)[nH]c3cc(Cl)ccc32)CC1` [domperidone, 5-Chloro-1-[1-[3-(2,3-dihydro-2-oxo-1H-benzimidazol-1-yl)propyl]-4-piperidinyl]-1,3-dihydro-2H-benzimidazol-2-one]: in the data set with laminitis in horses (Example 1: 1.1 mg/kg orally twice a day), the “side effects during treatment” value is listed as “no side effects noted”. Besides, the “time the mare remained sound” value in the data set on laminitis in horses (Example 1: 1.1 mg/kg orally twice a day for 15 days) is listed as “at least 15 days”. Further, the laminitic symptoms entry is on record as “laminitic symptoms had disappeared” in the data set on laminitis in horses (Example 1: 15 year old Arabian mare, chronic founder, 1.1 mg/kg orally twice a day, after three days of treatment) and “disappeared after the second day of treatment” with laminitis in horses (Example 5: horse with lameness of unknown etiology, 1.1 mg/kg orally SID for 5 days). The figures for the “return of laminitic symptoms” value in the data set on laminitis in horses (Example 1: after the resumed treatment) and in the data set with laminitis in horses (Example 5: 1.1 mg/kg orally SID for 5 days) were “Laminitic symptoms did not return” and “did not return”, respectively. Moreover, the “soundness after resumed treatment” value in the data set with laminitis in horses (Example 1: treatment resumed a few weeks later after return of symptoms, after four days of treatment) is reported as “the mare was sound again”. In addition, the walking / stiffness result with laminitis in horses (Example 2: pony of approx. 400 pounds, laminitic founder due to grain overload, 1.1 mg/kg orally twice per day, second day of treatment) is “walking the second day of treatment with no apparent stiffness”. Further, the recovery result is reported as “Complete recovery was apparent” with laminitis in horses (Example 2: pony, treatment continued for an additional two days) and “fully recovered” with laminitis in horses (Example 4: mare, 1.1 mg/kg orally SID for 5 days). In the data set on laminitis in horses (Example 3: total treatment 5 days), the return of symptoms result is given as “No return of symptoms was noted”. Besides, in the data set on laminitis in horses (Example 3: two horses with early signs of laminitis, 1.1 mg/kg orally twice per day, after two days of treatment), the symptoms entry is reported as “Symptoms were gone in both animals”. In addition, the signs of laminitis entry in the data set with laminitis in horses (Example 4: mare laminitic for several weeks, 1.1 mg/kg orally SID for 5 days, after three days of treatment) is given as “showing no signs of laminitis”. For the same compound, in the data set with laminitis in horses (Example 6: 1.1 mg/kg domperidone orally twice a day plus banamine plus acepromazine, after ten days of treatment), the improvement result was “about 75%”. The walking result in the data set on laminitis in horses (Example 6: Paso Fino mare, 1.1 mg/kg domperidone orally twice a day plus banamine plus acepromazine, afternoon of the second day of treatment) is “had improved and was walking some on her own, without prodding”. In addition, in the data set with laminitis in horses (horses, recommended concentrations, administered at least once per day), the “effectiveness against laminitic symptoms” value is recorded as “found to be effective”. In addition, the “benefit at higher oral concentrations” value in the data set on laminitis in horses (oral, concentrations greater than 3.3 mg/kg) is “no further benefits have been observed”. Moreover, in the data set on laminitis in horses (taken orally), the “oral concentration giving the best results” value is “about 1.1 mg/kg”.

Turning to `CC(=O)c1ccc2c(c1)N(CCCN(C)C)c1ccccc1S2` [acepromazine maleate], in data set [1], the side effects entry is “sedation and cholinesterase inhibition”.

As for `CC(COc1ccccc1)N(CCCl)Cc1ccccc1` (centres unmarked) [phenoxybenzamine], the side effects result in data set [1] is “hypotension, recumbency, and a prolonged duration of action”.
